Measurements reported in US20150105252A1, “SUBSTITUTED PYRAZOLES AS HERBICIDES” (E I DU PONT DE NEMOURS AND COMPANY, priority 2013, published 2015).

Assays:
Assay in all cases: Test F preemergence
soybean = type: in vivo, Glycine max
Text: (§1) Seeds of plant species selected from corn (Zea mays), soybean (Glycine max), velvetleaf (Abutilon theophrasti), lambsquarters (Chenopodium album), wild poinsettia (Euphorbia heterophylla), pigweed, palmer (palmer pigweed, Amaranthus palmeri), common waterhemp (Amaranthus rudis), surinam grass (Brachiaria decumbens), large crabgrass (Digitaria sanguinalis), crabgrass, Brazil (Brazilian crabgrass, Digitaria horizontalis), fall panicum (Panicum dichotomiflorum), giant foxtail (Setaria faberii), green foxtail (Setaria viridis), goosegrass (Eleusine indica), johnsongrass (Sorghum halepense), common ragweed (Ambrosia elation), barnyardgrass (Echinochloa crus-galli), southern sandbur (Cenchrus echinatus), arrowleaf sida (Sida rhombifolia), Italian ryegrass (Lolium multiflorum), dayflower, VA (Virginia (VA) dayflower, Commelina virginica), field bindweed (Convolvulus arvensis), cocklebur (common cocklebur, Xanthium strumarium), morningglory (Ipomoea coccinea), nightshade (eastern black nightshade, Solanum ptycanthum), kochia (Kochia scoparia), yellow nutsedge (Cyperus esculentus), and hairy beggarticks (Bidens pilosa), were planted into a silt loam soil and treated preemergence with test chemicals formulated in a non-phytotoxic solvent mixture which included a surfactant.
(§2) At the same time, plants from these crop and weed species and also horseweed (Canada horseweed, Conyza canadensis), smartweed (ladysthumb smartweed, Polygonum persicaria), waterhemp_RES1, (ALS & Triazine resistant common waterhemp, Amaranthus rudis), and waterhemp_RES2, (ALS & HPPD resistant common waterhemp, Amaranthus rudis) were treated with postemergence applications of test chemicals formulated in the same manner. Plants ranged in height from 2 to 18 cm for postemergence treatments (1- to 4-leaf stage). Treated plants and controls were maintained in a greenhouse for 14 to 21 days, after which time all species were compared to controls and visually evaluated. Plant response ratings, summarized in Table F, are based on a scale of 0 to 100 where 0 is no effect and 100 is complete control. A dash (-) response means no test result.

yellow nutsedge = type: in vivo, Cyperus esculentus
Text: as §1, §2

green foxtail = type: in vivo, Setaria viridis
Text: as §1, §2

velvetleaf = type: in vivo, Abutilon theophrasti
Text: as §1, §2

fall panicum = type: in vivo, Panicum dichotomiflorum
Text: as §1, §2

[1] = Preemergence, 250 g ai/ha, scale 0 to 100
[2] = Preemergence, 16 g ai/ha, scale 0 to 100
[3] = Preemergence, 62 g ai/ha, scale 0 to 100
[4] = Preemergence, 125 g ai/ha, scale 0 to 100
[5] = preemergence, 16 g ai/ha, scale 0 to 100, 100 is complete control
[6] = preemergence, scale 0 to 100, 100 is complete control
[7] = Preemergence, 31 g ai/ha, scale 0 to 100
[8] = preemergence, 8 g ai/ha, scale 0 to 100, 100 is complete control

SMILES	Plant response rating, Soybean (soybean; [3])	Plant response rating, Soybean (soybean; [4])	Plant response rating, Soybean (soybean; [5])	Plant response rating, Yellow Nutsedge (yellow nutsedge; [3])	Plant response rating, Yellow Nutsedge (yellow nutsedge; [4])	Plant response rating, Yellow Nutsedge (yellow nutsedge; [5])	Plant response rating, Green Foxtail (green foxtail; [3])	Plant response rating, Green Foxtail (green foxtail; [4])	Plant response rating, Green Foxtail (green foxtail; [5])	Plant response rating, Velvetleaf (velvetleaf; [3])	Plant response rating, Velvetleaf (velvetleaf; [4])	Plant response rating, Velvetleaf (velvetleaf; [5])	Plant response rating, Fall Panicum (fall panicum; [3])	Plant response rating, Fall Panicum (fall panicum; [4])	Plant response rating, Fall Panicum (fall panicum; [5])	Plant response rating, Soybean (soybean; [8])	Plant response rating, Yellow Nutsedge (yellow nutsedge; [8])	Plant response rating, Green Foxtail (green foxtail; [8])	Plant response rating, Velvetleaf (velvetleaf; [8])	Plant response rating, Fall Panicum (fall panicum; [8])	also measured
CCc1cc(C(=O)NC2CC2)nn1Cc1ccnc(OCC(F)(F)F)c1 [Compound 200]	0	65	0	0	25	0	5	60	0	20	80	0	35	80	0						Plant response rating, Soybean (soybean; [1]): 75; Plant response rating, Soybean (soybean; [2]): 0; Plant response rating, Yellow Nutsedge (yellow nutsedge; [1]): 35; Plant response rating, Green Foxtail (green foxtail; [1]): 85; Plant response rating, Velvetleaf (velvetleaf; [1]): 85; Plant response rating, Velvetleaf (velvetleaf; [6]): 0; Plant response rating, Fall Panicum (fall panicum; [1]): 90; Plant response rating, Fall Panicum (fall panicum; [2]): 0
CCNC(=O)c1cc(CCCl)n(Cc2ccnc(C(F)(F)F)c2)n1 [Compound 179]	65	70		10	60		20	70		20	40		70	98		0	0	0	0	0	Plant response rating, Soybean (soybean; [7]): 35; Plant response rating, Yellow Nutsedge (yellow nutsedge; [7]): 0; Plant response rating, Green Foxtail (green foxtail; [7]): 20; Plant response rating, Velvetleaf (velvetleaf; [7]): 0; Plant response rating, Fall Panicum (fall panicum; [7]): 35
Cc1cc(C(=O)NC(C)C)nn1Cc1ccnc(C(F)(F)F)c1 [Compound 197]	20	65	5	5	25	0	35	65	0	15	25	0	70	98	0	0	0	0	0	0	Plant response rating, Soybean (soybean; [2]): 10; Plant response rating, Velvetleaf (velvetleaf; [6]): 0; Plant response rating, Fall Panicum (fall panicum; [2]): 0
CCNC(=O)c1cc(CC)n(Cc2ccnc(C(F)(F)F)c2)n1 [Compound 196]	50	50	0	20	50	0	75	100	0	20	35	0	98	100	0	0	0	0	0	0	Plant response rating, Soybean (soybean; [2]): 20; Plant response rating, Velvetleaf (velvetleaf; [6]): 0; Plant response rating, Fall Panicum (fall panicum; [2]): 90
CCOc1cc(C(=O)NCC(F)(F)F)nn1Cc1ccnc(C(F)(F)F)c1 [Compound 104]	70	90	0	60	75	0	100	100	60	95	100	0	100	100	85	0	0	5	0	15	Plant response rating, Soybean (soybean; [7]): 25; Plant response rating, Yellow Nutsedge (yellow nutsedge; [7]): 25; Plant response rating, Green Foxtail (green foxtail; [7]): 100; Plant response rating, Velvetleaf (velvetleaf; [7]): 50; Plant response rating, Fall Panicum (fall panicum; [7]): 90
